Reference: patent publication US9738634B2, “Heterocyclic amide compound and herbicide” (SYNGENTA PARTICIPATIONS AG, priority 2013, dated 2017)

Experiments:
Type in all cases: in vivo
Conditions in all cases: treatment dosage 320 g/ha
transplanted rice = assay: Test Example 1: preemergent weed treatment in the submerged state, effect on crop; a: transplanted rice
Outline: (§1)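 Alluvial soil in Wagner pots flooded to 4 cm; barnyard grass, bulrush and oval-leafed pondweed seeds sown, then 2.5-leaf rice seedlings transplanted. Same day, emulsified compound diluted in water to set g/ha dosages and applied to water surface; greenhouse 25–30 °C, effect scored by criteria after 3 weeks.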

redroot pigweed [1] = assay: Test Example 3: weedkilling efficacy through soil treatment; L: redroot pigweed
Outline: (§2)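 Crop and weed responses were judged three weeks after a uniform surface spray of the water-diluted emulsion at the given g/ha rate. Seeds sat beneath about 1.5 cm of sterilized diluvial soil, and boxes stood in a greenhouse at 25 to 30° C.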

wheat [2] = assay: Test Example 3: soil treatment, effect on crop; e: wheat
Outline: as §2

common wind-grass [3] = assay: Test Example 4: weedkilling efficacy by foliar treatment; J: common wind-grass
Outline: (§3)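 Seeds are spot-sown into sterilized diluvial soil and covered with about 1.5 cm of soil. After 14 days' greenhouse growth at 25 to 30° C, plants are sprayed on stems and leaves with diluted emulsion at the stated g/ha rate, then scored at 3 weeks.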

barnyard grass [4] = assay: Test Example 2: weedkilling efficacy, growth period weed treatment in the submerged state; A: barnyard grass
Outline: (§4)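 First, alluvial soil in pots is flooded to 4 cm and mixed seed is sown. Next, plants grow in a greenhouse at 25 to 30° C until the 1-2 leaf stage. Then diluted emulsion is applied onto the water surface at the given g/ha rate, and injury is assessed after 3 weeks.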

directly sown rice [5] = assay: Test Example 4: foliar treatment, effect on crop; b: directly sown rice
Outline: as §3

crabgrass [6] = assay: Test Example 3: weedkilling efficacy through soil treatment; D: crabgrass
Outline: as §2

Italian ryegrass [7] = assay: Test Example 4: weedkilling efficacy by foliar treatment; I: Italian ryegrass
Outline: as §3

black-grass [8] = assay: Test Example 3: weedkilling efficacy through soil treatment; H: black-grass
Outline: as §2

oval-leafed pondweed [9] = assay: Test Example 2: weedkilling efficacy, growth period weed treatment in the submerged state; C: oval-leafed pondweed
Outline: as §4

crabgrass [10] = assay: Test Example 4: weedkilling efficacy by foliar treatment; D: crabgrass
Outline: as §3

wild oat [11] = assay: Test Example 4: weedkilling efficacy by foliar treatment; G: wild oat
Outline: as §3

Indian mallow [12] = assay: Test Example 4: weedkilling efficacy by foliar treatment; K: Indian mallow
Outline: as §3

barnyard grass [13] = assay: Test Example 1: weedkilling efficacy, preemergent weed treatment in the submerged state; A: barnyard grass
Outline: as §1

redroot pigweed [14] = assay: Test Example 4: weedkilling efficacy by foliar treatment; L: redroot pigweed
Outline: as §3

fig-leafed goosefoot [15] = assay: Test Example 3: weedkilling efficacy through soil treatment; M: fig-leafed goosefoot
Outline: as §2

wild oat [16] = assay: Test Example 3: weedkilling efficacy through soil treatment; G: wild oat
Outline: as §2

catchweed [17] = assay: Test Example 3: weedkilling efficacy through soil treatment; O: catchweed
Outline: as §2

fig-leafed goosefoot [18] = assay: Test Example 4: weedkilling efficacy by foliar treatment; M: fig-leafed goosefoot
Outline: as §3

chickweed [19] = assay: Test Example 4: weedkilling efficacy by foliar treatment; N: chickweed
Outline: as §3

bulrush [20] = assay: Test Example 2: weedkilling efficacy, growth period weed treatment in the submerged state; B: bulrush
Outline: as §4

green foxtail [21] = assay: Test Example 4: weedkilling efficacy by foliar treatment; E: green foxtail
Outline: as §3

beet [22] = assay: Test Example 3: soil treatment, effect on crop; f: beet
Outline: as §2

barnyard grass [23] = assay: Test Example 3: weedkilling efficacy through soil treatment; F: barnyard grass
Outline: as §2

rapeseed [24] = assay: Test Example 4: foliar treatment, effect on crop; g: rapeseed
Outline: as §3

corn [25] = assay: Test Example 4: foliar treatment, effect on crop; c: corn
Outline: as §3

oval-leafed pondweed [26] = assay: Test Example 1: weedkilling efficacy, preemergent weed treatment in the submerged state; C: oval-leafed pondweed
Outline: as §1

chickweed [27] = assay: Test Example 3: weedkilling efficacy through soil treatment; N: chickweed
Outline: as §2

soybean [28] = assay: Test Example 3: soil treatment, effect on crop; d: soybean
Outline: as §2

wheat [29] = assay: Test Example 4: foliar treatment, effect on crop; e: wheat
Outline: as §3

soybean [30] = assay: Test Example 4: foliar treatment, effect on crop; d: soybean
Outline: as §3

bulrush [31] = assay: Test Example 1: weedkilling efficacy, preemergent weed treatment in the submerged state; B: bulrush
Outline: as §1

rapeseed [32] = assay: Test Example 3: soil treatment, effect on crop; g: rapeseed
Outline: as §2

green foxtail [33] = assay: Test Example 3: weedkilling efficacy through soil treatment; E: green foxtail
Outline: as §2

birds-eye speedwell = assay: Test Example 4: weedkilling efficacy by foliar treatment; p: birds-eye speedwell
Outline: as §3

Italian ryegrass [34] = assay: Test Example 3: weedkilling efficacy through soil treatment; I: Italian ryegrass
Outline: as §2

catchweed [35] = assay: Test Example 4: weedkilling efficacy by foliar treatment; O: catchweed
Outline: as §3

barnyard grass [36] = assay: Test Example 4: weedkilling efficacy by foliar treatment; F: barnyard grass
Outline: as §3

beet [37] = assay: Test Example 4: foliar treatment, effect on crop; f: beet
Outline: as §3

corn [38] = assay: Test Example 3: soil treatment, effect on crop; c: corn
Outline: as §2

Indian mallow [39] = assay: Test Example 3: weedkilling efficacy through soil treatment; K: Indian mallow
Outline: as §2

black-grass [40] = assay: Test Example 4: weedkilling efficacy by foliar treatment; H: black-grass
Outline: as §3

common wind-grass [41] = assay: Test Example 3: weedkilling efficacy through soil treatment; J: common wind-grass
Outline: as §2

directly sown rice [42] = assay: Test Example 3: soil treatment, effect on crop; b: directly sown rice
Outline: as §2

## CC1=C(c2ccccc2)C(=O)N(C(C)(C)C(=O)Nc2cc(-c3ccc(F)nc3)ccn2)CO1 [B-5-01]
Transplanted rice
  a (transplanted rice) effect on crop grade: 0 (weed kill ratio 5% or less (practically no effect))
Redroot pigweed [1]
  L (redroot pigweed) weedkilling efficacy grade: 0 (weed kill ratio 5% or less (practically no effect))
Wheat [2]
  e (wheat) effect on crop grade: 0 (weed kill ratio 5% or less (practically no effect))
Common wind-grass [3]
  J (common wind-grass) weedkilling efficacy grade: 0 (weed kill ratio 5% or less (practically no effect))
Barnyard grass [4]
  A (barnyard grass) weedkilling efficacy grade: 3 (weed kill ratio 40% or more, less than 70%)
Directly sown rice [5]
  b (directly sown rice) effect on crop grade: 0 (weed kill ratio 5% or less (practically no effect))
Crabgrass [6]
  D (crabgrass) weedkilling efficacy grade: 0 (weed kill ratio 5% or less (practically no effect))
Italian ryegrass [7]
  I (Italian ryegrass) weedkilling efficacy grade: 0 (weed kill ratio 5% or less (practically no effect))
black-grass [8]
  H (black-grass) weedkilling efficacy grade: 0 (weed kill ratio 5% or less (practically no effect))
oval-leafed pondweed [9]
  C (oval-leafed pondweed) weedkilling efficacy grade: 4 (weed kill ratio 70% or more, less than 90%)
Crabgrass [10]
  D (crabgrass) weedkilling efficacy grade: 0 (weed kill ratio 5% or less (practically no effect))
Wild oat [11]
  G (wild oat) weedkilling efficacy grade: 0 (weed kill ratio 5% or less (practically no effect))
Indian mallow [12]
  K (Indian mallow) weedkilling efficacy grade: 0 (weed kill ratio 5% or less (practically no effect))
Barnyard grass [13]
  A (barnyard grass) weedkilling efficacy grade: 4 (weed kill ratio 70% or more, less than 90%)
Redroot pigweed [14]
  L (redroot pigweed) weedkilling efficacy grade: 0 (weed kill ratio 5% or less (practically no effect))
fig-leafed goosefoot [15]
  M (fig-leafed goosefoot) weedkilling efficacy grade: 0 (weed kill ratio 5% or less (practically no effect))
Wild oat [16]
  G (wild oat) weedkilling efficacy grade: 0 (weed kill ratio 5% or less (practically no effect))
Catchweed [17]
  O (catchweed) weedkilling efficacy grade: 0 (weed kill ratio 5% or less (practically no effect))
fig-leafed goosefoot [18]
  M (fig-leafed goosefoot) weedkilling efficacy grade: 3 (weed kill ratio 40% or more, less than 70%)
Chickweed [19]
  N (chickweed) weedkilling efficacy grade: 0 (weed kill ratio 5% or less (practically no effect))
Bulrush [20]
  B (bulrush) weedkilling efficacy grade: 3 (weed kill ratio 40% or more, less than 70%)
Green foxtail [21]
  E (green foxtail) weedkilling efficacy grade: 0 (weed kill ratio 5% or less (practically no effect))
Beet [22]
  f (beet) effect on crop grade: 0 (weed kill ratio 5% or less (practically no effect))
Barnyard grass [23]
  F (barnyard grass) weedkilling efficacy grade: 0 (weed kill ratio 5% or less (practically no effect))
Rapeseed [24]
  g (rapeseed) effect on crop grade: 0 (weed kill ratio 5% or less (practically no effect))
Corn [25]
  c (corn) effect on crop grade: 0 (weed kill ratio 5% or less (practically no effect))
oval-leafed pondweed [26]
  C (oval-leafed pondweed) weedkilling efficacy grade: 4 (weed kill ratio 70% or more, less than 90%)
Chickweed [27]
  N (chickweed) weedkilling efficacy grade: 0 (weed kill ratio 5% or less (practically no effect))
Soybean [28]
  d (soybean) effect on crop grade: 0 (weed kill ratio 5% or less (practically no effect))
Wheat [29]
  e (wheat) effect on crop grade: 0 (weed kill ratio 5% or less (practically no effect))
Soybean [30]
  d (soybean) effect on crop grade: 0 (weed kill ratio 5% or less (practically no effect))
Bulrush [31]
  B (bulrush) weedkilling efficacy grade: 5 (weed kill ratio 90% or more, (practically complete withering))
Rapeseed [32]
  g (rapeseed) effect on crop grade: 0 (weed kill ratio 5% or less (practically no effect))
Green foxtail [33]
  E (green foxtail) weedkilling efficacy grade: 2 (weed kill ratio 20% or more, less than 40%)
birds-eye speedwell
  P (birds-eye speedwell) weedkilling efficacy grade: 3 (weed kill ratio 40% or more, less than 70%)
Italian ryegrass [34]
  I (Italian ryegrass) weedkilling efficacy grade: 0 (weed kill ratio 5% or less (practically no effect))
Catchweed [35]
  O (catchweed) weedkilling efficacy grade: 1 (weed kill ratio 5% or more, less than 20%)
Barnyard grass [36]
  F (barnyard grass) weedkilling efficacy grade: 0 (weed kill ratio 5% or less (practically no effect))
Beet [37]
  f (beet) effect on crop grade: 0 (weed kill ratio 5% or less (practically no effect))
Corn [38]
  c (corn) effect on crop grade: 0 (weed kill ratio 5% or less (practically no effect))
Indian mallow [39]
  K (Indian mallow) weedkilling efficacy grade: 0 (weed kill ratio 5% or less (practically no effect))
black-grass [40]
  H (black-grass) weedkilling efficacy grade: 0 (weed kill ratio 5% or less (practically no effect))
Common wind-grass [41]
  J (common wind-grass) weedkilling efficacy grade: 4 (weed kill ratio 70% or more, less than 90%)
Directly sown rice [42]
  b (directly sown rice) effect on crop grade: 0 (weed kill ratio 5% or less (practically no effect))
